Experiments:
[1] = test system: barnyardgrass; test: Test A pre-/postemergence herbicide test; assay type: in vivo, Echinochloa crus-galli
How it was run: (§1)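 Seeds sown in sandy loam received a preemergence directed soil spray of compound in non-phytotoxic solvent with surfactant; postemergence plants (2–10 cm, one- to two-leaf stage) were sprayed to runoff at the same time. After ~10 days in greenhouse, injury was rated visually versus untreated controls (0 = no effect, 100 = complete control).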

[2] = test system: large crabgrass; test: Test A pre-/postemergence herbicide test; assay type: in vivo, Digitaria sanguinalis
How it was run: as §1

[3] = test system: giant foxtail; test: Test A pre-/postemergence herbicide test; assay type: in vivo, Setaria faberi
How it was run: as §1

[4] = test system: morningglory; test: Test A pre-/postemergence herbicide test; assay type: in vivo, Ipomoea spp.
How it was run: as §1

[5] = test system: redroot pigweed; test: Test A pre-/postemergence herbicide test; assay type: in vivo, Amaranthus retroflexus
How it was run: as §1

[6] = test system: velvetleaf; test: Test A pre-/postemergence herbicide test; assay type: in vivo, Abutilon theophrasti
How it was run: as §1

[7] = test system: barnyardgrass; test: Test B pre-/postemergence herbicide test; assay type: in vivo, Echinochloa crus-galli; details: for Barnyardgrass plant response rating: postemergence
How it was run: (§2)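 Greenhouse pot assay with simultaneous preemergence (treated seed) and postemergence (2–18 cm seedlings) applications of surfactant-containing, non-phytotoxic solvent formulations. Response scored visually 13–15 days later on a 0–100 scale, 100 meaning complete control.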

[8] = test system: Surinam grass; test: Test B pre-/postemergence herbicide test; assay type: in vivo, Urochloa decumbens; details: for Surinam Grass plant response rating: postemergence
How it was run: (§3)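 Visual rating, 0 (no effect) to 100 (complete control), versus untreated controls after 13–15 d in greenhouse. Pre- and postemergence applications (postemergence plants 2–18 cm, 1–4 leaves); flooded paddy arm at 2-leaf stage. Compounds in non-phytotoxic solvent plus surfactant.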

[9] = test system: cocklebur; test: Test B pre-/postemergence herbicide test; assay type: in vivo, Xanthium strumarium; details: for Cocklebur plant response rating: postemergence
How it was run: as §2

[10] = test system: corn; test: Test B pre-/postemergence herbicide test; assay type: in vivo, Zea mays; details: for Corn plant response rating: postemergence
How it was run: as §3

[11] = test system: large crabgrass; test: Test B pre-/postemergence herbicide test; assay type: in vivo, Digitaria sanguinalis; details: for Crabgrass, Large plant response rating: postemergence
How it was run: as §3

[12] = test system: giant foxtail; test: Test B pre-/postemergence herbicide test; assay type: in vivo, Setaria faberi; details: for Foxtail, Giant plant response rating: postemergence
How it was run: as §3

[13] = test system: lambsquarters; test: Test B pre-/postemergence herbicide test; assay type: in vivo, Chenopodium album; details: for Lambsquarters plant response rating: postemergence
How it was run: as §3

[14] = test system: morningglory; test: Test B pre-/postemergence herbicide test; assay type: in vivo, Ipomoea coccinea; details: for Morningglory plant response rating: postemergence
How it was run: as §2

[15] = test system: pigweed; test: Test B pre-/postemergence herbicide test; assay type: in vivo, Amaranthus retroflexus; details: for Pigweed plant response rating: postemergence
How it was run: as §3

[16] = test system: rice; test: Test B pre-/postemergence herbicide test; assay type: in vivo, Oryza sativa; details: preemergence
How it was run: as §3

[17] = test system: velvetleaf; test: Test B pre-/postemergence herbicide test; assay type: in vivo, Abutilon theophrasti; details: for Velvetleaf plant response rating: postemergence
How it was run: as §3

[18] = test system: blackgrass; test: Test B postemergence herbicide test; assay type: in vivo, Alopecurus myosuroides; details: postemergence
How it was run: (§4)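 Greenhouse test; postemergence application to plants at 1–4 leaves (2–18 cm); paddy species at 2 leaves; evaluated visually vs controls at 13–15 days; scale 0–100 (100 = complete control).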

[19] = test system: wheat; test: Test B postemergence herbicide test; assay type: in vivo, Triticum aestivum; set-up: key to Wheat plant response rating: 0 = no effect, 100 = complete control; details: postemergence
How it was run: (§5)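 Postemergence plants were sprayed with formulated test chemicals at 2 to 18 cm height (1- to 4-leaf stage); paddy species were grown to the 2-leaf stage. After 13 to 15 days in a greenhouse, injury was rated visually against untreated controls on a 0–100 scale (0 = no effect, 100 = complete control).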

[20] = test system: wild oat; test: Test B postemergence herbicide test; assay type: in vivo, Avena fatua; details: postemergence
How it was run: as §5

[21] = test system: rice; test: Test B flooded paddy test; assay type: in vivo, Oryza sativa; details: 1000 g ai/ha, scale 0 to 100 (0 no effect, 100 complete control)
How it was run: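 Read-out: visual comparison with controls, scored 0 to 100, where 100 means complete control and 0 no effect. Formulated chemicals were applied postemergence to plants 2–18 cm tall (1- to 4-leaf), or to flooded-paddy plants at the 2-leaf stage, then held 13 to 15 days under glass.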

[22] = test system: small flower umbrella sedge; test: Test B flooded paddy test; assay type: in vivo, Cyperus difformis; details: 1000 g ai/ha, scale 0 to 100 (0 no effect, 100 complete control)
How it was run: as §4

[23] = test system: ducksalad; test: Test B flooded paddy test; assay type: in vivo, Heteranthera limosa; details: 1000 g ai/ha, scale 0 to 100 (0 no effect, 100 complete control)
How it was run: as §4

[24] = test system: barnyardgrass; test: Test B flooded paddy test; assay type: in vivo, Echinochloa crus-galli; details: 1000 g ai/ha, scale 0 to 100 (0 no effect, 100 complete control)
How it was run: as §4

[25] = Postemergence, 500 g ai/ha, 0 to 100 scale, 0 no effect, 100 complete control
[26] = Postemergence, 2000 g ai/ha, 0 to 100 scale, 0 no effect, 100 complete control
[27] = Preemergence, 2000 g ai/ha, visual rating, 0 to 100 scale (0 no effect, 100 complete control)
[28] = preemergence, 500 g ai/ha, visual injury, 0 to 100 scale (0 no effect, 100 complete control)
[29] = 125 g ai/ha, 0 is no effect, 100 is complete control, preemergence
[30] = 125 g ai/ha, visual rating, scale 0 (no effect) to 100 (complete control)
[31] = 500 g ai/ha, visual rating, 0 = no effect, 100 = complete control, preemergence
[32] = 500 g ai/ha, scale 0 to 100, 0 is no effect, 100 is complete control

With `Cn1nc(C(C)(C)C)cc1C(=O)Nc1cccc(C(=O)NC2CC2)n1` [Compound 315] the “Barnyardgrass plant response rating” value [1, 25] was 20, the “Plant response rating, Barnyardgrass” value [1, 26] was 20 and the “Barnyardgrass plant response rating” value [1, 27] was 5. For the same molecule, the “Barnyardgrass plant response rating” value [1, 28] was 5, the “Crabgrass, Large plant response rating” value [2, 25] was 20 and the “Plant response rating, Crabgrass, Large” value [2, 26] was 20. For the same molecule, the “Crabgrass, Large plant response rating” value [2, 27] was 15, the “Crabgrass, Large plant response rating” value [2, 28] was 5 and the “Foxtail, Giant plant response rating” value [3, 25] was 0. The “Plant response rating, Foxtail, Giant” value [3, 26] was 0, the “Foxtail, Giant plant response rating” value [3, 27] was 10 and the “Foxtail, Giant plant response rating” value [3, 28] was 0. For the same molecule, the “Morningglory plant response rating” value [4, 25] was 0, the “Plant response rating, Morningglory” value [4, 26] was 0 and the “Morningglory plant response rating” value [4, 27] was 10. The “Morningglory plant response rating” value [4, 28] was 5, the “Pigweed plant response rating” value [5, 25] was 10 and the “Plant response rating, Pigweed” value [5, 26] was 20. For the same molecule, the “Pigweed plant response rating” value [5, 27] was 45, the “Pigweed plant response rating” value [5, 28] was 15 and the “Velvetleaf plant response rating” value [6, 25] was 0. For the same molecule, the “Plant response rating, Velvetleaf” value [6, 26] was 0, the “Velvetleaf plant response rating” value [6, 27] was 30 and the “Velvetleaf plant response rating” value [6, 28] was 10. The “Plant response rating (0 to 100 scale), Barnyardgrass” value [7, 29] was 0, the “Barnyardgrass plant response rating” value [7, 30] was 10 and the “Plant response rating, Barnyardgrass” value [7, 31] was 20. For the same molecule, the “Barnyardgrass plant response rating” value [7, 32] was 20, the “Plant response rating (0 to 100 scale), Surinam Grass” value [8, 29] was 0 and the “Surinam Grass plant response rating” value [8, 30] was 20. For the same molecule, the “Plant response rating, Surinam Grass” value [8, 31] was 10, the “Surinam Grass plant response rating” value [8, 32] was 20 and the “Plant response rating (0 to 100 scale), Cocklebur” value [9, 29] was 0. The “Cocklebur plant response rating” value [9, 30] was 20, the “Plant response rating, Cocklebur” value [9, 31] was 0 and the “Cocklebur plant response rating” value [9, 32] was 20. The “Plant response rating (0 to 100 scale), Corn” value [10, 29] was 0, the “Corn plant response rating” value [10, 30] was 10 and the “Plant response rating, Corn” value [10, 31] was 0. The “Corn plant response rating” value [10, 32] was 20, the “Plant response rating (0 to 100 scale), Crabgrass, Large” value [11, 29] was 0 and the “Crabgrass, Large plant response rating” value [11, 30] was 0. The “Plant response rating, Crabgrass, Large” value [11, 31] was 20, the “Crabgrass, Large plant response rating” value [11, 32] was 10 and the “Plant response rating (0 to 100 scale), Foxtail, Giant” value [12, 29] was 0. The “Foxtail, Giant plant response rating” value [12, 30] was 0, the “Plant response rating, Foxtail, Giant” value [12, 31] was 20 and the “Foxtail, Giant plant response rating” value [12, 32] was 10. For the same molecule, the “Plant response rating (0 to 100 scale), Lambsquarters” value [13, 29] was 0, the “Lambsquarters plant response rating” value [13, 30] was 50 and the “Plant response rating, Lambsquarters” value [13, 31] was 80. For the same molecule, the “Lambsquarters plant response rating” value [13, 32] was 60, the “Plant response rating (0 to 100 scale), Morningglory” value [14, 29] was 0 and the “Morningglory plant response rating” value [14, 30] was 0. For the same molecule, the “Plant response rating, Morningglory” value [14, 31] was 0, the “Morningglory plant response rating” value [14, 32] was 20 and the “Plant response rating (0 to 100 scale), Pigweed” value [15, 29] was 20. For the same molecule, the “Pigweed plant response rating” value [15, 30] was 10, the “Plant response rating, Pigweed” value [15, 31] was 100 and the “Pigweed plant response rating” value [15, 32] was 50. For the same molecule, the “Plant response rating (0 to 100 scale), Rice” value ([16]; 125 g ai/ha, 0 is no effect, 100 is complete control) was 0, the “Plant response rating, Rice” value ([16]; 500 g ai/ha, visual rating, 0 = no effect, 100 = complete control) was 0 and the “Plant response rating (0 to 100 scale), Velvetleaf” value [17, 29] was 10. The “Velvetleaf plant response rating” value [17, 30] was 20, the “Plant response rating, Velvetleaf” value [17, 31] was 20 and the “Velvetleaf plant response rating” value [17, 32] was 20. For the same molecule, the “Blackgrass plant response rating” value [18, 30] was 0, the “Blackgrass plant response rating” value [18, 32] was 0 and the “Wheat plant response rating” value [19, 30] was 0. For the same molecule, the “Wheat plant response rating” value [19, 32] was 0, the “Oat, Wild plant response rating” value [20, 30] was 0 and the “Oat, Wild plant response rating” value [20, 32] was 10. For the same molecule, the “Rice plant response rating” value [21] was 0, the “Sedge, Umbrella plant response rating” value [22] was 0 and the “Ducksalad plant response rating” value [23] was 0. For the same molecule, the “Barnyardgrass plant response rating” value [24] was 0.

— US20060069132A1, “Azolecarboxamide herbicides” (priority 2004, published 2006)
